Assays:
[1] = biological target: T1, L-galactono-γ-lactone dehydrogenase (Brassica oleracea, UniProt O47881); assay: GLDase activity in the presence of lycorine (reduction of cytochrome c, absorption at 550 nm); type: biochemical, cauliflower (Brassica olecera var. botrytis); design: Activity of the enzyme expressed in increase in absorption at 550 nm/second: scale not given here
T1 construct: The resulting mature protein of 509 amino acids has a calculated molecular mass of 57,837 Da; from tissue; host or cells: cauliflower florets (mitochondrial pellet, acetone-precipitated extract; DEAE, Phenyl Sepharose and Sephacryl gel filtration fractions)
T1 sequence (O47881 92-600): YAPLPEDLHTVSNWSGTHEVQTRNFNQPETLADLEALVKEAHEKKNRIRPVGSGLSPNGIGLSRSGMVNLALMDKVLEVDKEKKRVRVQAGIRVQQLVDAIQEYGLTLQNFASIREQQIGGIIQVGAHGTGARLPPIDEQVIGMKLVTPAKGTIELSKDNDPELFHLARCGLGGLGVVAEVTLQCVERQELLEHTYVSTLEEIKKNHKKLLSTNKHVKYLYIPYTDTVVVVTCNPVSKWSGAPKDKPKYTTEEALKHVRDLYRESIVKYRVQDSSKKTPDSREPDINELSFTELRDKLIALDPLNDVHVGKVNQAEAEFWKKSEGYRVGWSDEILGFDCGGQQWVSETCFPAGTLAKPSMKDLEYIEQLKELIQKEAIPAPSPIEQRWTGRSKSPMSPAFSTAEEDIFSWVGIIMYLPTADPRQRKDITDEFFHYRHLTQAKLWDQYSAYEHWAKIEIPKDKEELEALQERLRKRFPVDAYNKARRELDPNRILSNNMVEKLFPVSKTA
Description: The GLDase activity of the fractions was is determined spectrophotometrically by monitoring the L-galactono-γ-lactone dehydrogenase-dependent reduction of cytochrome c at 22° C. A typical reaction mixture contained the enzyme extract, 1.5 mg/ml cytochrome c and 4.2 mM L-galactono-γ-lactone in 0.05 M Tris-HCl buffer (pH 8.4). Reduction of cytochrome c was monitored by determining the absorption increase at 550 nm. Under these conditions the speed of the reaction was linear in respect of time for an initial period of 15 minutes. One unit of enzyme activity was defined as the quantity of enzyme reducing 2 μmol of cytochrome C per minute.
Lycorine was isolated from the plant Crinum asiaticum and the identity of the isolated product was verified by NMR, electron spray mass spectrometry HPLC analysis and capillary electrophoresis. Fractions of L-galactono-γ-lactone dehydrogenase activity isolated from the gel filtration column were tested for their activity in two different buffers in the presence of 5 or 50 μM lycorine (see table 3).

ascorbic acid synthesis = conditions: literature statement; cited from earlier work
[2] = biological target: T2, L-galactono-γ-lactone dehydrogenase (Arabidopsis thaliana, UniProt Q9SU56); conditions: literature (De Tullio et al. 1994; Arrigoni et al. 1996); cited from earlier work
T2 sequence (Q9SU56 102-610): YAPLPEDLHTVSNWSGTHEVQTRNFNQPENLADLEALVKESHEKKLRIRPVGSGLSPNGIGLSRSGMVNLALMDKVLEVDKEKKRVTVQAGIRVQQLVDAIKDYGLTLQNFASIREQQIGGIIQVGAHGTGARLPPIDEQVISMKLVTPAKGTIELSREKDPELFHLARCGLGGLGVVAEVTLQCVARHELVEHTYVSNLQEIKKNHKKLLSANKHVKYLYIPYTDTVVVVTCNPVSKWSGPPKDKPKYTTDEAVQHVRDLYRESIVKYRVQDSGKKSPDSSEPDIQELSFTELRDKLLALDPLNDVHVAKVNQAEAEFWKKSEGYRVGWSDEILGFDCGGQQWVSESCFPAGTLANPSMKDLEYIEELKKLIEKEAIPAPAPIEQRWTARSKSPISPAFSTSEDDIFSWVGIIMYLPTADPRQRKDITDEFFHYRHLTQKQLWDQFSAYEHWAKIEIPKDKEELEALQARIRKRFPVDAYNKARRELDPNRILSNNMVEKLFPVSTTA

O[C@H]1[C@H]2c3cc4c(cc3CN3CCC(=C[C@@H]1O)[C@H]23)OCO4 [lycorine]
Activity of the enzyme expressed in increase in absorption at 550 nm/second ([1]; 5 μM lycorine, 75 mM PO4 pH 7.0, 0 μM control 0.980): 0.857 absorption at 550 nm/second | Activity of the enzyme expressed in increase in absorption at 550 nm/second ([1]; 5 μM lycorine, 75 mM PO4 pH 7.5, 0 μM control 1.385): 1.372 absorption at 550 nm/second | Activity of the enzyme expressed in increase in absorption at 550 nm/second ([1]; 5 μM lycorine, 75 mM PO4 pH 8, 0 μM control 1.882): 1.690 absorption at 550 nm/second | Activity of the enzyme expressed in increase in absorption at 550 nm/second ([1]; 5 μM lycorine, 75 mM Tris pH 7.4, 0 μM control 3.627): 3.927 absorption at 550 nm/second | Activity of the enzyme expressed in increase in absorption at 550 nm/second ([1]; 5 μM lycorine, 75 mM Tris pH 8.2, 0 μM control 6.365): 6.400 absorption at 550 nm/second | Activity of the enzyme expressed in increase in absorption at 550 nm/second ([1]; 5 μM lycorine, 75 mM Tris pH 8.9, 0 μM control 5.438): 5.199 absorption at 550 nm/second | Activity of the enzyme expressed in increase in absorption at 550 nm/second ([1]; 50 μM lycorine, 75 mM PO4 pH 7.0, 0 μM control 0.980): 0.842 absorption at 550 nm/second | Activity of the enzyme expressed in increase in absorption at 550 nm/second ([1]; 50 μM lycorine, 75 mM PO4 pH 7.5, 0 μM control 1.385): 1.254 absorption at 550 nm/second | Activity of the enzyme expressed in increase in absorption at 550 nm/second ([1]; 50 μM lycorine, 75 mM PO4 pH 8, 0 μM control 1.882): 1.768 absorption at 550 nm/second | Activity of the enzyme expressed in increase in absorption at 550 nm/second ([1]; 50 μM lycorine, 75 mM Tris pH 7.4, 0 μM control 3.627): 3.743 absorption at 550 nm/second | Activity of the enzyme expressed in increase in absorption at 550 nm/second ([1]; 50 μM lycorine, 75 mM Tris pH 8.2, 0 μM control 6.365): 6.127 absorption at 550 nm/second | Activity of the enzyme expressed in increase in absorption at 550 nm/second ([1]; 50 μM lycorine, 75 mM Tris pH 8.9, 0 μM control 5.438): 5.507 absorption at 550 nm/second | Effect on GLDase activity ([1]; 100 μM lycorine, additional tests): did not show a decrease in activity | Effect on GLDase activity after pre-incubation ([1]; pre-incubation of one hour of the enzyme with lycorine): did not influence the enzyme activity | Sensitivity of the isolated GLDase to lycorine ([1]; up to a concentration of 50 μM): lycorine-insensitive | Concentration at which ascorbic acid synthesis is inhibited (ascorbic acid synthesis): ≥ 1 µM | Inhibition of L-galactono-γ-lactone dehydrogenase [2]: inhibited

Reference: patent US6469149B1 (priority 1997, dated 2002)
